Patent US20240225056A1, “Rhodotorula Capable of Efficiently Degrading Ethyl Carbamate and Application Thereof” (priority 2022, published 2024)

System: R. toruloides DL-XSY01
Assay: Antibiotic sensitivity test, disc diffusion method
Type: cell-based
Conditions: YPD-agar, 28° C., 24 h
Procedure: The antibiotic sensitivity spectrum of the R. toruloides DL-XSY01 was characterized by using a disc diffusion method. […] The above medium with each type of paper was statically cultured at 28° C. for 24 h, and then the diameter of an inhibition zone was measured and counted; and analysis was performed on the drug resistance R (≤14 mm), intermediate-phase I (14-20 mm) or sensitivity S (≥20 mm), with three replicates for each group.

**Q.** For `CC1(C)S[C@@H]2[C@H](NC(=O)[C@H](N)c3ccccc3)C(=O)N2[C@H]1C(=O)O` [Ampicillin], which “Antibiotic sensitivity of DL-XSY01 (in words)” value is on record?
**A.** sensitive

**Q.** And the “Antibiotic sensitivity of DL-XSY01 (inhibition zone class)” value?
**A.** S (sensitivity S (≥20 mm))

**Q.** Which results are given for `CC1(C)S[C@@H]2[C@H](NC(=O)Cc3ccccc3)C(=O)N2[C@H]1C(=O)O` [Penicillin G]?
**A.** Antibiotic sensitivity of DL-XSY01 (in words): sensitive; Antibiotic sensitivity of DL-XSY01 (inhibition zone class): S (sensitivity S (≥20 mm))

**Q.** What does the source list for `Cc1nnc(SCC2=C(C(=O)O)N3C(=O)[C@@H](NC(=O)Cn4cnnn4)[C@H]3SC2)s1` [Cefazolin]?
**A.** Antibiotic sensitivity of DL-XSY01 (in words): sensitive; Antibiotic sensitivity of DL-XSY01 (inhibition zone class): S (sensitivity S (≥20 mm))

**Q.** How did the “Antibiotic sensitivity of DL-XSY01 (in words)” value turn out when `[H]/N=C(/N)N[C@H]1[C@H](O)[C@@H](O)[C@H](O[C@@H]2O[C@@H](C)[C@](O)(C=O)[C@H]2O[C@@H]2O[C@@H](CO)[C@H](O)[C@@H](O)[C@@H]2NC)[C@@H](N/C(N)=N\[H])[C@@H]1O` [Streptomycin] was run?
**A.** sensitive

**Q.** And the “Antibiotic sensitivity of DL-XSY01 (inhibition zone class)” value?
**A.** S (sensitivity S (≥20 mm))

**Q.** With `CN[C@H](CC(C)C)C(=O)N[C@H]1C(=O)N[C@@H](CC(N)=O)C(=O)N[C@H]2C(=O)N[C@H]3C(=O)N[C@H](C(=O)N[C@H](C(=O)O)c4cc(O)cc(O)c4-c4cc3ccc4O)[C@H](O)c3ccc(c(Cl)c3)Oc3cc2cc(c3O[C@@H]2O[C@H](CO)[C@@H](O)[C@H](O)[C@H]2O[C@H]2C[C@](C)(N)[C@H](O)[C@H](C)O2)Oc2ccc(cc2Cl)[C@H]1O` [Vancomycin] as the compound, how does the “Antibiotic sensitivity of DL-XSY01 (in words)” value read?
**A.** sensitive

**Q.** And the “Antibiotic sensitivity of DL-XSY01 (inhibition zone class)” value?
**A.** S (sensitivity S (≥20 mm))

**Q.** How did the “Antibiotic sensitivity of DL-XSY01 (inhibition zone class)” value turn out when `CN(C)[C@@H]1C(O)=C(C(N)=O)C(=O)[C@@]2(O)C(O)=C3C(=O)c4c(O)cccc4[C@@](C)(O)[C@H]3C[C@@H]12` [Tetracycline] was run?
**A.** S (sensitivity S (≥20 mm))

**Q.** Which results are given for `CC1=C(C(=O)O)N2C(=O)[C@@H](NC(=O)[C@H](N)c3ccccc3)[C@H]2SC1` [Cephalexin]?
**A.** Antibiotic sensitivity of DL-XSY01 (in words): moderately sensitive; Antibiotic sensitivity of DL-XSY01 (inhibition zone class): I (intermediate-phase I (14-20 mm))

**Q.** Which “Antibiotic sensitivity of DL-XSY01 (inhibition zone class)” value does the source give for `CN(C)c1ccc(O)c2c1C[C@H]1C[C@H]3[C@H](N(C)C)C(O)=C(C(N)=O)C(=O)[C@@]3(O)C(O)=C1C2=O` [Minocycline] here?
**A.** S (sensitivity S (≥20 mm))

**Q.** For `NCC[C@H](O)C(=O)N[C@@H]1C[C@H](N)[C@@H](O[C@H]2O[C@H](CN)[C@@H](O)[C@H](O)[C@H]2O)[C@H](O)[C@H]1O[C@H]1O[C@H](CO)[C@@H](O)[C@H](N)[C@H]1O` [Amikacin], which “Antibiotic sensitivity of DL-XSY01 (in words)” value is on record?
**A.** sensitive

**Q.** And the “Antibiotic sensitivity of DL-XSY01 (inhibition zone class)” value?
**A.** S (sensitivity S (≥20 mm))

**Q.** `CC[C@H]1OC(=O)[C@H](C)[C@@H](O[C@H]2C[C@@](C)(OC)[C@@H](O)[C@H](C)O2)[C@H](C)[C@@H](O[C@@H]2O[C@H](C)C[C@H](N(C)C)[C@H]2O)[C@](C)(O)C[C@@H](C)C(=O)[C@H](C)[C@@H](O)[C@]1(C)O` [Erythromycin] was tested. Which “Antibiotic sensitivity of DL-XSY01 (in words)” value did it give?
**A.** sensitive

**Q.** And the “Antibiotic sensitivity of DL-XSY01 (inhibition zone class)” value?
**A.** S (sensitivity S (≥20 mm))

**Q.** Which results are given for Gentamicin?
**A.** Antibiotic sensitivity of DL-XSY01 (in words): sensitive; Antibiotic sensitivity of DL-XSY01 (inhibition zone class): S (sensitivity S (≥20 mm))
